{"source": "patent US5830855A", "about": "“Lipodepsipeptides as antifungal and fungicidal agents” (priority 1996, dated 1998)", "type_in_all_cases": "cell-based", "key": {"Sheep erythrocytes": {"tested_on": "Sheep erythrocytes", "assay": "Erythrocyte toxicity (sheep RBC hemolysis, hemoglobin release)", "details": "37° C. 1 hr, FIG. 1 and 2", "procedure": "Erythrocyte Toxicity: Sheep red blood cell (RBC) hemolysis was used to assess erythrocyte toxicity of the CLPs and AmB. RBCs (MicroBio Products, Inc., Salt Lake City, Utah) were washed four times with phosphate-buffered-saline (PBS) by centrifugation at 800× g for 10 min and adjusted to 1×10^8 cells/ml as previously described by Chavanet, P., V. Joly, D. Rigaud, J. Bolard, C. Carbon, and P. Yeni. 1994. Influence of diet on experimental toxicity of amphotericin B deoxycholate. Antimicrob. Agents Chemother. 38(5):963-968. RBCs and a 2× concentration of SR-E, ST-B or SS-A in PBS were mixed in a 1:1 ratio and incubated at 37° C. for 1 hr. After incubation, cells were pelleted by centrifugation at 800× g for 10 min and the supernatant was collected and the absorbance at 550 nm was determined. […] Distilled water and PBS were used as lysis and hemoglobin retention controls, respectfully, as described by National Committee for Clinical Laboratory Standards. 1992. Reference method for broth dilution antifungal susceptibility testing of yeasts; proposed standard, NCCLS document M27-P (ISBN 1-56238-186-5). NCCLS, Villanova."}, "[1]": {"tested_on": "clinical isolates (fungi)", "assay": "Broth microdilution MIC, fungal isolates overall", "details": "summary range over the fungi tested", "description": "Most of the fungal strains used in the tests were clinical isolates obtained from the University of Texas Health Science Center at San Antonio Fungus Testing Laboratory (San Antonio, Tex.) and the remaining isolates were ATCC strains.\n(§1) Medium: Liquid RPMI 1640 (RPMI) medium with L-glutamine and without sodium bicarbonate (Sigma Chemical Co., R-6504; St. Louis, Mo.) buffered with 0.165M MOPS (34.54 g/liter) was used for in vitro antifungal tests. The medium was adjusted to pH 7.0 with 10M NaOH and filter sterilized.\nLipodepsipeptide Dilutions: All stock drug solution concentrations were at least 10-fold higher than the highest concentration tested. […]\nPreparation of Inoculum Suspensions: On Sabouraud dextose agar (SDA; BBL, Becton and Dickinson and Co., Cockeysville, Md.) all isolates were subcultured at least twice before use to ensure purity and viability. […] The turbidity of each mixed suspension was measured at 530 nm and adjusted to 1×10^6 to 5×10^6 CFU/ml by the NCCLS spectrophotometric method described by National Committee for Clinical Laboratory Standards. […]\nAspergillus fumigatus and Mucor spp. were grown for 1 wk at 35° C. […] The stock suspensions of all filamentous fungi were measured at 530 nm and adjusted to 85-87% transmission. The concentration (1×10^6 to 5×10^6 CFU/ml) was determined by hemacytometer count or plate count on SDA. […]"}, "Mucor spp.": {"tested_on": "Mucor spp.", "assay": "Broth microdilution MIC", "details": "Table 1 (MICs), 5 isolates, 48 hr", "procedure": "as §1\nLipodepsipeptide Dilutions: All stock drug solution concentrations were at least 10-fold higher than the highest concentration tested. AmB, ketoconazole, and the test compounds (SR-E, ST-B, and SS-A) were dissolved in sterile distilled water, 0.2N HCl, and 0.001N HCl, respectively. Each stock solution was diluted to 2× the highest concentration of drug tested with RPMI. Two-fold dilutions were made with RPMI medium.\nPreparation of Inoculum Suspensions: On Sabouraud dextose agar (SDA; BBL, Becton and Dickinson and Co., Cockeysville, Md.) all isolates were subcultured at least twice before use to ensure purity and viability. Candida spp. and Saccharomyces cerevisiae were grown for 24 hr at 35° C. Isolates of Cryptococcus neoformans were grown for 48 hr at 35° C. Yeast cells from at least five 1-mm-diameter colonies were suspended in 5 ml of sterile 0.85% saline. The resulting suspension was vortexed for 15 sec. The turbidity of each mixed suspension was measured at 530 nm and adjusted to 1×10^6 to 5×10^6 CFU/ml by the NCCLS spectrophotometric method described by National Committee for Clinical Laboratory Standards. 1992. Reference method for broth dilution antifungal susceptibility testing of yeasts; proposed standard, NCCLS document M27-P (ISBN 1-56238-186-5). NCCLS, Villanova. The final transmission of each yeast suspension ranged from 85-87%.\nAspergillus fumigatus and Mucor spp. were grown for 1 wk at 35° C. The dermatophytes, Microsporum spp. and Trichophyton spp., were grown for two wk at 30° C. Fungal spores were washed from the plates of all good spore formers (A. fumigatus, Mucor spp., Microsporum canis and Trichophyton spp.) by placing 5 ml of 0.85% saline with 0.2% Tween 80 on the plates and mixing with an inoculating loop. The spore/mycelium suspension was drawn off with a pipette and allowed to settle for at least 5 min. For the poor spore-forming Microsporum audouinii, the procedure was the same except the spore/mycelial suspension was homogenized with a ground glass tissue homogenizer and then allowed to settle for at least 5 min. A small amount of the supernatant was transferred to 5 ml of sterile saline and vortexed. The stock suspensions of all filamentous fungi were measured at 530 nm and adjusted to 85-87% transmission. The concentration (1×10^6 to 5×10^6 CFU/ml) was determined by hemacytometer count or plate count on SDA. All stock suspensions were diluted 1000-fold with RPMI, or 2× the final desired test inocula. The 2× inoculum was diluted 1:1 when the wells were inoculated, and the desired inoculum size was achieved.\nBroth Microdilution Test: Broth microdilution tests were performed using sterile, disposable, multiwell microdilution plates (96 round U-bottom wells) (Falcon 3077; Becton and Dickinson Labware, Lincoln Park, N.J.). The drugs (2× concentrations) were dispensed into the wells of rows number 1 to 10 of the microdilution plates in 100 μl volumes from highest drug concentration to lowest drug concentration. Each well was inoculated with 100 μl of the corresponding 2× concentrated fungal suspension. The wells of row 11 contained the inoculum with drug-free media as a positive growth control and the wells of row 12 contained uninoculated-drug-free medium as a sterility control.\nIncubation and Scoring of MIC: All cultures were incubated without shaking at the temperature used during subculture. Incubation times were 48 hr for Candida spp., S. cerevisiae, A. fumigatus, and Mucor spp; 72 hr for C. neoformans; and 7 days for Microsporum and Trichophyton spp. […]"}}, "note": "Numbered stars: 1 amine (or outer) side, 2 acyl side, 3 side chain; on linkers, the order of the positions; unused ones are H or OH. Bridge positions count the residues as written; N and C are the ends. Square brackets hold non-standard residues; d marks the D form. Peptide text beside a SMILES is read from it. * marks the point of attachment. ξ: configuration not given here. ξAsp(3ξ-OH) = NC(C(=O)O)C(O)C(=O)O; X3 = O=C(C(N[*:1])C(O)CCl)[*:2]; X2 = CCCCCCCCCCCC(O)CC(=O)*; Orn = NCCC[CH](N)C(=O)O; hSer = N[CH](CCO)C(=O)O; Dab = NCC[CH](N)C(=O)O; Dhb = C/C=C(\\N)C(=O)O"}
{"molecule": "C/C=C1\\NC(=O)C(C(C)O)NC(=O)C(CCCN)NC(=O)C(CCO)NC(=O)CNC(=O)C(CCN)NC(=O)C(NC(=O)CC(O)CCCCCCCCCCC)COC(=O)C(C(O)CCl)NC(=O)C(C(O)C(=O)O)NC1=O", "note": "(stereo not drawn) [ST-B, Syringotoxin B] (X2-S[Dab]G[hSer][Orn]T[Dhb][ξAsp(3ξ-OH)][X3]; ester 1-C; configuration not given here)", "values": [{"measurement": "erythrocyte toxicity (lysis, hemoglobin release)", "setting": "Sheep erythrocytes", "value": "least toxic of the three CLPs"}, {"measurement": "antifungal activity (overall range)", "setting": "[1]", "value": "0.8 to 200", "unit": "g/mL"}, {"measurement": "MIC range", "setting": "Mucor spp.", "value": "6.25 to 100", "unit": "µg/mL"}]}
